# According to patent US10995068B2, “Synthetic sphingolipid-like molecules, drugs, methods of their synthesis and methods of treatment” (The Regents of the University of California, priority 2015, dated 2021):
# Legend:
# [1] = tested on: murine hematopoietic cell line FL5.12; test: Viability of FL5.12 cells by vital dye exclusion; assay type: cell-based; conditions: Mus musculus; FL5.12 cells, 48 h, vital dye exclusion; n ≥3; read-out: IC50 (μM) [95% CI]
# Method: Cell culture studies: FL5.12 cells (murine hematopoetic cells originally obtained from Craig Thompson, Memorial Sloan Kettering Cancer Center) were maintained at 0.1-0.5 million/ml in RPMI 1640 (Mediatech) supplemented with 10% fetal calf serum (FCS, Sigma-Aldrich), 10 mM Hepes (Mediatech), 500 pg/ml recombinant IL-3 (cat #575502, Biolegend), 55 μM β-mercaptoethanol (Sigma-Aldrich), 2 mM L-glutamine (Mediatech), and antibiotics. Cells were screened for Mycoplasma every 3 months using the Look-Out Mycoplasma PCR Detection kit (cat #MP0035, Sigma).
# IC50 values were calculated using GraphPad Prism (GraphPad Software, Inc, La Jolla, Calif.).
# S1P receptor 3 = target: T1, S1P receptor 3 (Homo sapiens, UniProt Q99500); test: S1P receptor activation in CHO cells, S1P3; assay type: cell-based; conditions: CHO cells over-expressing human S1P3
# T1 construct: expressed in transfected cells
# From the text: Phosphorylation may have effects on S1P receptor activity that could cause bradycardia. Bradycardia, the dose-limiting toxicity that prevents the use of FTY720 in cancer patients, stems from FTY720-P's actions on S1P receptors 1 and 3. (Camm, J., et al. (2014) Am. Heart J. 168, 632-644; Cohen, J. A., Chun, J. (2011) Ann. Neurol. 69, 759-777; Sanna, M. G., et al. (2004) J. Biol. Chem. 279, 13839-13848; the disclosures of which are incorporated herein by reference). Phosphorylation by sphingosine kinase may make compounds competent to activate S1P receptors. FTY720, for example, when phosphorylated is known to activate S1P receptors 1 and 3. Because compound 5 could be phosphorylated, the activity of compound 5 and its phosphate 5-P (FIG. 28) on S1P receptors was evaluated (FIG. 32).
# 51P1-5 activation: Chinese hamster ovary (CHO) cells stably over-expressing the different human 51P receptor subtypes are used. S1P1, S1P4 and S1P5 overexpressing CHO cells are cultured in medium containing alpha-MEM supplemented with 10% FBS, 50 μg/ml gentamycin and 0.5 mg/ml G418. S1P2 and S1P3 overexpressing CHO cells are cultured in RPMI containing 10% FBS, 50 μg/ml gentamycin and 0.5 mg/ml G418. Prior to stimulation, cells are rendered serum-free for 24 h. Stimulation is carried out for 10 min in serum-free DMEM containing 0.1 mg/ml of fatty-acid free BSA in the absence or presence of the various compounds or 51P. Protein lysates are prepared using a buffer containing (50 mM Tris pH 7.4, 150 mM NaCl, 10% glycerol, 1% Triton X-100, 2 mM EDTA, 2 mM EGTA, 40 mM β-glycerophosphate, 50 mM sodium fluoride, 10 mM sodium pyrophosphate, 2 mM dithiothreitol, 0.2 mM sodium orthovanadate). Cells are homogenized by one 5 sec burst in a MSE Ultrasonic Disintegrator, centrifuged and taken for protein determination. Equal amounts of protein are separated by SDS-PAGE (10% polyacrylamide gel), transferred to nitrocellulose membranes and subjected to Western blot analysis. Bands were stained using IRDye® secondary antibodies and visualized by the LICOR Odyssey® Fc Imaging system. Antibodies against phospho-Thr202/Tyr204-p42/p44-MAPK and phospho-Ser PKC substrate are from Cell Signaling, Frankfurt am Main, Germany. Polyclonal antisera against total p42 and total p44 were generated and characterized as previously described. (Huwiler, A.; Pfeilschifter, J. Br. J. Pharmacol. 1994, 113, 1455-1463; disclosure of which is incorporated herein by reference).
# [2] = tested on: subcutaneous SW620 xenograft tumors; test: SW620 xenograft study in nude mice; assay type: in vivo
# Method: In even another exemplary study, anti-neoplasm potency of the constrained pyrrolidine sphingolipid-like compounds in xenograft tumor animal studies. Nude mice bearing subcutaneous SW620 xenograft tumors were treated daily with 10 mg/kg FTY720 or 20 mg/kg of compounds 5 or 15 by intraperitoneal injection. […] Furthermore, these compounds retain many of the beneficial abilities of FTY720, such as, for example water solubility, oral bioavailability, and anti-tumor activity but no longer trigger bradycardia. Thus, these compounds are ideal for medicaments and treatments for neoplasms.
# SW620 and SW480 xenograft studies: For SW620 xenograft studies, two and one half million luciferase-expressing SW620 colon cancer cells suspended in PBS with 2% FCS are injected subcutaneously in the flank of 7 week old male nude mice (Charles Rivers Labs, Crl:NU(NCr)-Foxn1nu). When tumors reached 100 mm^3 in volume, mice are assigned to groups with matched average tumor volumes and animal weights. Four groups containing 7 mice are treated intraperitoneally with either vehicle (0.9% saline), 10 mg/kg FTY720, or 20 mg/kg compound 5 or compound 15. Tumor length and width are measured with calipers at 7 and 11 days of treatment. Tumor volume is calculated using the formula volume (mm^3)=length [mm]×(width [mm])^2×0.52. The average fold change in the volume of each tumor over time is shown.
# [3] = tested on: luciferase-expressing SW620 xenografts; test: Luciferase-expressing SW620 xenografts treated with SH-BC-893; assay type: in vivo, mice; conditions: for SW620 tumors by bioluminescence imaging, caliper measurements and tumor mass at sacrifice: luciferase-expressing SW620 xenografts in mice, SH-BC-893 20 mg/kg i.p.
# Method: In many embodiments, exemplary experimentation was carried out to determine whether azacyclic constrained sphingolipid-lipid molecules inhibited neoplastic growth in vivo. To carry out this experimentation, luciferase-expressing SW620 xenografts were generated in mice.
# In vivo studies. Experiments conducted in mice were performed in accordance with the Institutional Animal Care and Use Committee of University of California, Irvine following a power analysis conducted in consultation with the Biostatistics Shared Resource of Chao Family Comprehensive Cancer Center at UCI. Xenografts were produced by injecting 5 million cells subcutaneously in the flank of 10-16 week-old male or female NSG mice. Prostate isografts were produced in the same manner but in male 6-8 wk old C57BL/6 mice. Once tumors reached 100 mm^3, SH-BC-893 was administered by intraperitoneal (i.p.) injection or oral gavage as indicated. Tumor volume was calculated using the formula, volume (mm^3)=length [mm]×(width [mm])^2×0.52; BLI was measured using an IVIS imaging system (Xenogen). To generate pDKO mice on the C57BL6 background, Pten^flox mice (stock No. 0045597) and p53^flox mice (stock No. 008462) were obtained from the Jackson Laboratory and PB-Cre4 mice (strain #01XF5) were obtained from the NCI-Frederick Mouse Repository. Age-matched cohorts of pDKO males were generated by in vitro fertilization executed with the assistance of the Transgenic Mouse Facility at UC Irvine. Treatment was begun at 6-7 wks of age. […] Tumor samples were processed and imaged by the Pathology Research Services Core Facility at UC Irvine. Blood chemistry was analyzed by IDEXX BioResearch and complete blood counts were performed using a Hemavet hematology system.
# T1 sequence (Q99500 whole entry): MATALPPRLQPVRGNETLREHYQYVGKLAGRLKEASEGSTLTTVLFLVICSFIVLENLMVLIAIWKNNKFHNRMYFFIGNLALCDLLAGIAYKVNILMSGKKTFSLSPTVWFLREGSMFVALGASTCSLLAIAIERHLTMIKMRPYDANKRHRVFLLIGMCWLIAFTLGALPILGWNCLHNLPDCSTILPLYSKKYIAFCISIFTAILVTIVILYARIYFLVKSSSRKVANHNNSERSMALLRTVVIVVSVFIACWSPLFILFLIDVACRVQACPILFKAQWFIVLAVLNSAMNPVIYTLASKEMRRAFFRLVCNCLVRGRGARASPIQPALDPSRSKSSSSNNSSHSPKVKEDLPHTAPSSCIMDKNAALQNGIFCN
Structure (SMILES),IC50 [1] [µM],activation of S1P receptor 3 (S1P receptor 3),tumor growth of SW620 xenografts ([2]; 20 mg/kg daily by intraperitoneal injection),body weight of treated mice ([3]; SW620 xenograft mice),"SW620 tumors by bioluminescence imaging, caliper measurements and tumor mass at sacrifice [3]",tumor growth of SW620 xenografts ([2]; 10 mg/kg daily by intraperitoneal injection)
"CCCCCCCCc1ccc([C@H]2CCN[C@@H]2CO)cc1.Cl [Compound 5, (2S,3R)-2-(hydroxymethyl)-3-(4-octylphenyl)Pyrrolidinium chloride]",1.9,failed to activate,inhibited tumor growth,Mild weight loss,reduced to a similar degree,–
"CCCCCCCCc1ccc(CCC(N)(CO)CO)cc1.Cl [FTY720, 2-Amino-2-[2-(4-octylphenyl)ethyl]propane 1,3-diol hydrochloride, reference compound]",2.4,–,–,–,reduced to a similar degree,inhibited tumor growth
CCCCCCCCc1ccc([C@@H]2CCN[C@H]2CO)cc1.Cl [Compound 6],–,failed to activate,–,–,–,–
